Test results as given in patent US11674967B2, “Method of identifying potential inhibitors of APO TNFα trimers” (UCB BIOPHARMA SRL, priority 2015, dated 2023).

Experiments:
[1] = test system: TNFα-induced IL-8 production; assay: TNFα-induced IL-8 production by human monocytes; assay type: cell-based; settings: TNFα ~1 ng/ml, 18 hours
Experimental: Venous blood from healthy donors was collected by venupuncture into sodium/heparin containing tubes (BD Biosciences). Peripheral blood mononuclear cells (PBMC) were isolated by density gradient centrifugation with Ficoll Paque (Amersham Biosciences). Briefly, 10 mL of blood was diluted 1:1 (v/v) with RPMI 1640 (Gibco) and carefully layered onto 20 mL Ficoll Paque. Cells were spun down for 30 minutes (min) at 470 g, the PBMC collected, washed once in RPMI 1640 and any remaining contaminating erythrocytes lysed in erythrocyte lysis buffer (1 g/L KHCO3, 8.3 g/L NH4Cl, 0.0372 g/L EDTA). Isolation of monocytes from the PBMC was performed using CD14+ Magnetic MicroBeads (Miltenyi Biotec) according to the manufacturer's instructions. Briefly, PBMC were resuspended in Dulbecco's modified Eagle's medium containing 5% BSA (Sigma) and 2 mM EDTA (Sigma) at 1×10^7 cells/ml. […] of CD14 MicroBeads per 10^7 total cells were incubated for 15 min at room temperature. The magnetic separation was performed using a LS column (Miltenyi Biotec). […]
Human IL-8 was measured in the cell culture supernatants using enzyme-linked immunosorbent assay (ELISA) kits from R&D Systems Ltd. according to the manufacturer's instructions. […] Plates were read at a wavelength of 630 nm with correction at 470 nm.

TNFα = TNFα (Homo sapiens, UniProt P01375); assay: Surface plasmon resonance kinetics of compound binding to immobilised TNFα
Sequence of TNFα (P01375 77-233 limits assumed): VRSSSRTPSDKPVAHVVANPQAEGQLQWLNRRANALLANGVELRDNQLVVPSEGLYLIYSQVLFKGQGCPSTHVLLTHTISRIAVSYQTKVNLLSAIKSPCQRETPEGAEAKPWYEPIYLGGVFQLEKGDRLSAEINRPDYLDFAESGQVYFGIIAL
Experimental: Surface plasmon resonance was used to measure the association rate, the dissociation rate and the affinity of the compounds of formulae (3) and (15) for TNFα (FIGS. 12A and B). For the purpose of this study a Biacore T100/T200 was used.
TNFα was immobilised at pH5 to a level of 5-8 KRU onto a CMS sensor in HBS-P buffer (10 mM HEPES pH 7.4, 0.15 M NaCl, 0.005% Surfactant P20, BIAcore, GE Healthcare). The TNFα was then equilibrated in HBS-P with 5% DMSO for at least 5 hours. The samples were diluted from 10 mM stocks into DMSO matched buffer and left to solubilise for at least 5 hours. The flow rate was […].
This assay was performed by adding 4 or 5 concentrations of compound starting from a highest concentration of 25 μM for compound of formula (3) and 1 μM for compound of formula (15) and then serially diluting this sample. Background subtraction binding curves were analysed using the BIAevaluation software following standard procedures. Binding, affinity and kinetic parameters were determined using Biacore software. The kinetic data were fitted using the levenberg marquardt algorithm.

[2] = test system: hTNFα-induced neutrophil recruitment; assay: Neutrophil recruitment in mice, compound given orally before hTNFα i.p.; assay type: in vivo, Balb/c mice
Experimental: In a further experiment, mice were treated with hTNFα (0.3 μg/ml) and the compound of formula (3) was administered orally (p.o.).
The compound of formula (3) was made into a suspension in 1% methylcellulose vehicle using a covaris machine.
An anti-human TNFα monoclonal antibody (anti-hTNFα, UCB) was also utilised as a positive control in this study.
Ten male Balb/c mice were used per group except in the group that received anti-hTNFα for which 4 mice were used.
Mice received 100 μL of either vehicle (1% methylcellulose) or compound of formula (3) at 30 mg/kg or 100 mg/kg p.o. 30 minutes (t=−30) or anti-hTNFα at 10 mg/kg i.p. 5 minutes (t=−5) prior to being injected with human TNFα.
All mice were killed by cervical dislocation two hours post-injection of hTNFα (t=2 h) and the peritoneal cavity was lavaged and neutrophil numbers measured as described above.

TNF-R1 = assay: HEK-Blue NF-κB reporter gene counterscreen, activating TNF-R1 antibody stimulus; assay type: cell-based, human; settings: antibody 300 ng/mL
Experimental: Stimulation of HEK-293 cells by TNF-alpha leads to activation of the NF-kB pathway. The reporter cell line used to determine TNF alpha activity was purchased from Invivogen. HEK-Blue™ CD40L, is a stable transfectant expressing SEAP (secreted alkaline phosphatase) under the control of the IFN-beta minimal promoter fused to 5 NF-kB binding sites. Secretion of SEAP by these cells is stimulated in a concentration dependent manner by TNF-alpha (0.5 ng/ml), IL-1-beta (0.5 ng/ml) and an activating anti-human TNFR1 antibody (300 ng/ml).
Compounds were diluted from 10 mM DMSO stocks (final assay concentration 0.3%) to generate a 10 point 3 fold serial dilution curve (30,000 nM to 2 nM final concentration). They were mixed with stimulating ligand for 1 hour in a 384 well microtitre plate. Freshly thawed and washed cells were added to the compound/stimulus mixture and further incubated for 18 hours. SEAP activity was determined in the supernatant using the colorimetric substrate Quanti-Blue™ (Invivogen).
Percentage inhibitions for compound dilutions were calculated between a DMSO control and maximum inhibition (by excess control compound) and an IC50 calculated using xlfit (4 parameter logistic model) in Activity Base.
The specific activity of the compound of formula (15) against the TNF-alpha response was compared to that seen with the counterscreens (IL-1beta and anti-human TNFR1 antibody).

SMILES | IC50 [1] | dissociation rate constant (koff) (TNFα) | kon (TNFα) | reduction of TNFα stimulated neutrophil recruitment into the peritoneal cavity ([2]; 30 mg/kg p.o.) | reduction of TNFα stimulated neutrophil recruitment into the peritoneal cavity ([2]; 100 mg/kg p.o.) | inhibition of activation of NF-κB by activating TNF-R1 antibody (TNF-R1)
Cc1ccc(C)c(Cn2c(C(O)c3ccncc3)nc3ccccc32)c1 (stereo not drawn) [Compound 3] | 454 nM | 9.46 e^−5 s^−1 | 2.668 e^3 M^−1 s^−1 | 49% | 79% | 
Cc1ccc(C)c(Cn2c(C(O)c3ccncc3)nc3ccc(-c4cnn(C)c4)cc32)c1 (stereo not drawn) [Compound 15] |  |  |  |  |  | did not inhibit
